Like-named read-outs stand apart in the source and are kept apart here.
Columns and labels:
[1] = molecular target: HCV NS3/4A protease complex, BMS strain (UniProt P27958, C1454S/C1711G, species not given/STRAIN_BMS); test: Recombinant HCV NS3/4A protease complex FRET peptide assay (BMS strain); type: biochemical, HCV genotype 1a
Outline: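 Percent inhibition taken from the linear-range fluorescence slope relative to uninhibited control, read kinetically for about 15 min at 25° C. Enzyme (2-3 nM, BMS NS3/4A complex, lysine-tailed, Ni-NTA purified) met compound for 1 min before 2 μM FRET depsipeptide substrate started cleavage.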

[2] = test system: HCV replicon in Huh7 cells; test: HCV replicon cell-based assay; set-up: species or system HCV strain 1B; details: Hepatitis C virus, Huh-7; HCV replicon, Huh7 cells; read-out: EC50 range
[3] = NS3/4A BMS strain; read-out: IC50 range
[4] = read-out: IC50 range; NS3/4A BMS strain

Compound	IC50 [1, 3] [nM]	EC50 [2] [nM]	IC50 [1, 4] [nM]
C=CC1C[C@]1(NC(=O)[C@@H]1C[C@@H](Oc2nc(-c3csc(N(CC)CC)n3)cc3cc(OC)ccc23)CN1C(=O)[C@@H](NC(=O)OC(C)(C)C)C(C)(C)C)C(=O)NS(=O)(=O)C1CC1 (stereo partly shown) [Compound 321]	< 100	100 to 1000	–
C=C[C@@H]1C[C@]1(NC(=O)[C@@H]1C[C@@H](Oc2cc(-c3ccccc3)nc3nc(C)ccc23)CN1C(=O)[C@@H](NC(=O)OC(C)(C)C)C(C)(C)C)C(=O)NS(=O)(=O)C1CC1 [Compound 2]	< 100	100 to 1000	–
C=CC1C[C@]1(NC(=O)[C@@H]1C[C@@H](Oc2nsc3ccccc23)CN1C(=O)[C@@H](NC(=O)OC(C)(C)C)C(C)(C)C)C(=O)NS(=O)(=O)C1CC1 (stereo partly shown) [Compound 324]	< 100	100 to 1000	–
CC[C@@H]1C[C@]1(NC(=O)[C@@H]1C[C@@H](Oc2nccc3ccc(C)cc23)CN1C(=O)[C@@H](NC(=O)OC(C)(C)C)C(C)(C)C)C(=O)NS(=O)(=O)C1CC1 [Compound 296]	< 100	100 to 1000	–
C=C[C@@H]1C[C@]1(NC(=O)[C@@H]1C[C@@H](Oc2ccnc(-c3ccc(F)cc3)c2)CN1C(=O)[C@@H](NC(=O)OC1CCCC1)C(C)(C)C)C(=O)NS(=O)(=O)C1CC1 [Compound 427]	< 100	100 to 1000	–
C=C[C@@H]1C[C@]1(NC(=O)[C@@H]1C[C@@H](Oc2nccc3ccccc23)CN1C(=O)[C@@H](NC(=O)Oc1ccccc1OC)C(C)(C)C)C(=O)NS(=O)(=O)C1CC1 [Compound 127]	< 100	100 to 1000	–
C=CC1C[C@]1(NC(=O)[C@@H]1C[C@@H](Oc2nnc(Cl)c3ccccc23)CN1C(=O)[C@@H](NC(=O)OC(C)(C)C)C(C)(C)C)C(=O)NS(=O)(=O)C1CC1 (stereo partly drawn) [Compound 195, BOCNH-P3(L-tert-BuGly)-P2[(4R)-(4-chloro phthalazine-1-oxo)-S -proline]-P1(1R,2S Vinyl Acca)-CONHSO2-Cyclopropane]	< 100	< 100	–
C=CC1C[C@]1(NC(=O)[C@@H]1C[C@@H](Oc2nncc3ccccc23)CN1C(=O)[C@@H](NC(=O)OC(C)(C)C)C(C)(C)C)C(=O)NS(=O)(=O)C1CC1 (stereo partly drawn) [Compound 194, BOCNH-P3(L-tert-BuGly)-P2[(4R)-(phthalazine-1-oxo)-S-proline]-P1(1R,2S Vinyl Acca)-CONHSO2-Cyclopropane]	< 100	100 to 1000	–
C=C[C@@H]1C[C@]1(NC(=O)[C@@H]1C[C@@H](Oc2nccc3cc(OC)ccc23)CN1C(=O)[C@H](CC(=O)OC(C)(C)C)NC(=O)OC(C)(C)C)C(=O)NS(=O)(=O)C1CC1 [Compound 139]	< 100	100 to 1000	–
C=CC1C[C@]1(NC(=O)[C@@H]1C[C@@H](Oc2nc3c(c4ccccc24)OCC3)CN1C(=O)[C@@H](NC(=O)OC(C)(C)C)C(C)(C)C)C(=O)NS(=O)(=O)C1CC1 (stereo partly drawn) [Compound 219, BOCNH-P3(L-t-BuGly)-P2[(4R)-(2,3-dihydro-1-oxa-4aza -cyclopenta[α]naphthalen-5-yloxy)-S-proline]-P1(1R,2S VinylAcca)-CONHSO2Cyclopropane]	< 100	< 100	–
C=C[C@@H]1C[C@]1(NC(=O)[C@@H]1C[C@@H](Oc2ccnc3cc(Cl)ccc23)CN1C(=O)[C@@H](NC(=O)OC(C)(C)C)C(C)(C)C)C(=O)NS(=O)(=O)C1CC1 [Compound 371]	< 100	< 100	–
C=C[C@@H]1CC1(NC(=O)[C@@H]1CC(Oc2nccc3cc(OC)ccc23)CN1C(=O)[C@@H](NC(=O)NC(C)(C)CC)C(C)(C)C)C(=O)NS(=O)(=O)C1CC1 (stereo partly shown) [Compound 76]	–	< 100	< 100
C=C[C@@H]1C[C@]1(NC(=O)[C@@H]1C[C@@H](Oc2nc(-c3ccc(OC)cc3)cc3ccccc23)CN1C(=O)[C@@H](NC(=O)OC(C)(C)C)C(C)(C)C)C(=O)NS(=O)(=O)C1CC1 [Compound 26]	< 100	< 100	–
C=C[C@@H]1C[C@]1(NC(=O)[C@@H]1CC(Oc2nccc3cc(OC)ccc23)CN1C(=O)[C@@H](NC(=O)N(C)C(C)(C)C)C(C)(C)C)C(=O)NS(=O)(=O)C1CC1 (stereo partly shown) [Compound 77]	< 100	100 to 1000	–
C=C[C@@H]1C[C@]1(NC(=O)[C@@H]1C[C@@H](Oc2nccc3cc(OC)ccc23)CN1C(=O)[C@@H](NC(=O)O[C@H]1CCOC1)C(C)(C)C)C(=O)NS(=O)(=O)C1CC1 [Compound 19]	< 100	< 100	–
C=C[C@@H]1C[C@]1(NC(=O)[C@@H]1CC(Oc2nccc3cc(OC)ccc23)CN1C(=O)[C@@H](NC(=O)c1cnccn1)C(C)(C)C)C(=O)NS(=O)(=O)C1CC1 (stereo partly shown) [Compound 63]	< 100	1000 to 10000	–
C=C[C@@H]1C[C@]1(NC(=O)[C@@H]1C[C@@H](Oc2nc(-c3ccoc3)cc3cc(OC)ccc23)CN1C(=O)[C@@H](NC(=O)OC(C)(C)C)C(C)(C)C)C(=O)NS(=O)(=O)C1CC1 [Compound 41]	< 100	< 100	–
C=C[C@@H]1C[C@]1(NC(=O)[C@@H]1C[C@@H](Oc2nccc3ccccc23)CN1C(=O)[C@@H](NC(=O)COC)C(C)(C)C)C(=O)NS(=O)(=O)C1CC1 [Compound 131]	100 to 1000	1000 to 10000	–

Compound	IC50 [1, 3] [nM]	EC50 [2] [nM]	IC50 [1, 4] [nM]
C=C[C@@H]1C[C@]1(NC(=O)[C@@H]1C[C@@H](Oc2nccc3cc(Br)ccc23)CN1C(=O)[C@@H](NC(=O)OC(C)(C)C)C(C)(C)C)C(=O)NS(=O)(=O)C1CC1 [Compound 22]	< 100	100 to 1000	–
C=C[C@@H]1C[C@]1(NC(=O)[C@@H]1CC(Oc2nccc3cc(OC)ccc23)CN1C(=O)[C@@H](NC(=O)NC(C)(C)Cc1ccc(F)cc1)C(C)(C)C)C(=O)NS(=O)(=O)C1CC1 (stereo partly shown) [Compound 82]	< 100	100 to 1000	–
C=C[C@@H]1C[C@]1(NC(=O)[C@@H]1C[C@@H](Oc2ccnc(-c3ccoc3)c2)CN1C(=O)[C@@H](NC(=O)OC1CCCC1)C(C)(C)C)C(=O)NS(=O)(=O)C1CC1 [Compound 426]	< 100	100 to 1000	–
C=C[C@@H]1C[C@]1(NC(=O)[C@@H]1CC(Oc2nccc3cc(OC)ccc23)CN1C(=O)C([C@@H](C)CC)N(C)C(=O)OC(C)(C)C)C(=O)NS(=O)(=O)C1CC1 (stereo partly shown) [Compound 84]	< 100	100 to 1000	–
C=CC1C[C@]1(NC(=O)[C@@H]1C[C@@H](Oc2nccc3c(SC)c(OC)ccc23)CN1C(=O)[C@@H](NC(=O)OC(C)(C)C)C(C)(C)C)C(=O)NS(=O)(=O)C1CC1 (stereo partly drawn) [Compound 207, BOCNH-P3(L-t-BuGly)-P2 [(4R)-(6-methoxy-5-methylthio-isoquinolin-1-oxo)-S-proline]-P1(1R,2S VinylAcca)-CONHSO2Cyclopropane]	< 100	< 100	–
C=C[C@@H]1C[C@]1(NC(=O)[C@@H]1C[C@@H](Oc2nccc3ccccc23)CN1C(=O)[C@@H](NC(=O)Oc1ccc(C)cc1)C(C)(C)C)C(=O)NS(=O)(=O)C1CC1 [Compound 120]	< 100	100 to 1000	–
C=C[C@@H]1C[C@]1(NC(=O)[C@@H]1C[C@@H](Oc2nc(-c3ccccc3)cc3ccccc23)CN1C(=O)[C@@H](NC(=O)OC(C)(C)C)C(C)(C)C)C(=O)NS(=O)(=O)C1CC1 [Compound 25]	< 100	< 100	–
C=CC1C[C@]1(NC(=O)[C@@H]1C[C@@H](Oc2nccc(-c3ccccn3)n2)CN1C(=O)[C@@H](NC(=O)OC)C(C)(C)C)C(=O)NS(=O)(=O)C1CC1 (stereo partly shown) [Compound 336]	100 to 1000	1000 to 10000	–
C=C[C@@H]1C[C@]1(NC(=O)[C@@H]1CC(Oc2nccc3cc(OC)ccc23)CN1C(=O)[C@H](CCC)N(C)C(=O)OC(C)(C)C)C(=O)NS(=O)(=O)C1CC1 (stereo partly shown) [Compound 88]	1000 to 10000	10000 to 100000	–
C=CC1C[C@]1(NC(=O)[C@@H]1C[C@@H](Oc2nccc3cc(C(C)(C)C)ccc23)CN1C(=O)[C@@H](NC(=O)OC(C)(C)C)C(C)(C)C)C(=O)NS(=O)(=O)C1CC1 (stereo partly drawn) [Compound 191, BOCNH-P3(L-tert-BuGly)-P2[(4R)-(6-tert-butyl isoquinolin-1-oxo)-S-proline]-P1(1R,2S Vinyl Acca)-CONHSO2-Cyclopropane]	< 100	100 to 1000	–
C=C[C@@H]1C[C@]1(NC(=O)[C@@H]1C[C@@H](Oc2nccc3cc(OC)ccc23)CN1C(=O)[C@@H](NC(=O)OCC(C)(C)C)C(C)(C)C)C(=O)NS(=O)(=O)C1CC1 [Compound 18]	< 100	< 100	–
C=C[C@@H]1C[C@]1(NC(=O)[C@@H]1C[C@@H](Oc2nc(-c3nccs3)cc3cc(OC)ccc23)CN1C(=O)[C@@H](NC(=O)OC(C)(C)C)C(C)(C)C)C(=O)NS(=O)(=O)C1CC1 [Compound 37]	< 100	< 100	–
CC[C@@H]1C[C@]1(NC(=O)[C@@H]1C[C@@H](Oc2nccc3c(OC)cccc23)CN1C(=O)[C@@H](NC(=O)OC(C)(C)C)C(C)(C)C)C(=O)NS(=O)(=O)C1CC1 [Compound 292]	< 100	100 to 1000	–
C=C[C@@H]1C[C@]1(NC(=O)[C@@H]1C[C@@H](Oc2nccc3ccccc23)CN1C(=O)[C@@H](NC(=O)OCCCCCC)C(C)(C)C)C(=O)NS(=O)(=O)C1CC1 [Compound 129]	100 to 1000	100 to 1000	–
C=C[C@@H]1C[C@]1(NC(=O)[C@@H]1C[C@@H](Oc2cc(-c3ccccc3OC)nc3c(C)noc23)CN1C(=O)[C@@H](NC(=O)OC(C)(C)C)C(C)(C)C)C(=O)NS(=O)(=O)C1CC1 [Compound 6]	100 to 1000	100 to 1000	–
C=C[C@@H]1C[C@]1(NC(=O)[C@@H]1CC(Oc2nccc3cc(OC)ccc23)CN1C(=O)[C@@H](NC(=O)OC1CCC1)C(C)(C)C)C(=O)NS(=O)(=O)C1CC1 (stereo partly shown) [Compound 71]	< 100	< 100	–
C=C[C@@H]1CC1(NC(=O)[C@@H]1CC(Oc2nccc3cc(OC)ccc23)CN1C(=O)[C@@H](NC(=O)CC1CC1)C(C)(C)C)C(=O)NS(=O)(=O)C1CC1 (stereo partly shown) [Compound 58]	–	< 100	< 100
